Results published in US20060199819A1, “Inhibition of cyclooxygenase-2 activity” (Celgene Corporation, priority 2000, published 2006).

Tests used:
PGE2 biosynthesis = assay: LPS-mediated PGE2 biosynthesis in macrophages (RAW 264.7 cells); type: cell-based; settings: macrophages in RAW 264.7 cells, as little as 50 μM
Excerpt: (§1) Cyclooxygenase-2, the rate-limiting enzyme in prostaglandin biosynthesis, is expressed in tumor associated macrophages. Because prostaglandins, notable PGE2, are important mediators of inflammatory response and angiogenesis, inhibition of their biosynthesis can be used to combat these effects. Inhibition of the cyclooxygenase-2 protein by a test compound can be conveniently observed in cells in which induction of the protein has been induced by lipopolysaccharide (LPS). Thus it is known that LPS enhances cyclooxygenase-2 transcription and this effect thus can be used as convenient model for evaluating cyclooxygenase-2 inhibition.
(§2) In one experiment, LPS-mediated induction of cyclooxygenase-2, as well as PGE2 biosynthesis, in macrophages in RAW 264.7 cells was blocked by as little as 50 μM of 3-phthalimido-2,6-dioxopiperidine. It appears, however, that LPS-enhanced cyclooxy-genase-2 transcription is not itself effected by the amide or imide. That is, the amide or imide has no effect on the induction of cyclooxygenase-2 by LPS. On the other hand, the amide or imide enhances the degradation of cyclooxygenase-2 messenger RNA. Consequently while not wishing to be bound by any theory, it appears the inhibitory effect of the amide or imide operates on the activity of cyclooxygenase-2 by some post-transcriptional mechanism.

cyclooxygenase-2 = assay: LPS-mediated induction of cyclooxygenase-2 in macrophages (RAW 264.7 cells); type: cell-based; settings: macrophages in RAW 264.7 cells; as little as 50 μM
Excerpt: as §1, §2

## O=C1CCC(N2C(=O)c3ccccc3C2=O)C(=O)N1 (centres unmarked) [3-phthalimido-2,6-dioxopiperidine]
PGE2 biosynthesis
  PGE2 biosynthesis: blocked
cyclooxygenase-2
  LPS-mediated induction of cyclooxygenase-2: blocked
